Assay results from the supplement of paper PMC4862054.

Legend:
Experiment in all cases: normalised viability (% of control), CellTiter-Blue; higher = more viable cells (about 100 = DMSO control)
[1] = system: MFM-223; conditions: 10000 nM; incubation time: 72 h
How it was run: (§1)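 Breast cancer cell lines in 20 µl suspension were seeded onto 384-well plates pre-loaded with compound dissolved in 5 µl medium, then incubated 72 h. CellTiter-Blue reagent (2.5 µl) was added for 2 h at 37 °C and fluorescence read at 560/590 nm. Each plate was normalised to vehicle (100) and a positive kill control (0), with Z'-factor quality control. The value is normalised viability at one listed concentration of the series.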

[2] = system: MDA-MB-468; conditions: 10000 nM; incubation time: 72 h
How it was run: as §1

[3] = system: MDA-MB-436; conditions: 10000 nM; incubation time: 72 h
How it was run: as §1

[4] = system: HCC1599; conditions: 10000 nM; incubation time: 72 h
How it was run: as §1

[5] = system: HCC1143; conditions: 10000 nM; incubation time: 72 h
How it was run: as §1

[6] = system: CAL-120; conditions: 10000 nM; incubation time: 72 h
How it was run: as §1

[7] = system: HCC1937; conditions: 10000 nM; incubation time: 72 h
How it was run: as §1

[8] = system: BT-474; conditions: 10000 nM; incubation time: 72 h
How it was run: as §1

[9] = system: MDA-MB-231; conditions: 10000 nM; incubation time: 72 h
How it was run: as §1

[10] = system: HDQ-P1; conditions: 100 nM; incubation time: 72 h
How it was run: as §1

[11] = system: Hs578T; conditions: 10000 nM; incubation time: 72 h
How it was run: as §1

[12] = system: SK-BR-3; conditions: 10000 nM; incubation time: 72 h
How it was run: as §1

[13] = system: CAL-51; conditions: 100 nM; incubation time: 72 h
How it was run: as §1

[14] = system: DU-4475; conditions: 100 nM; incubation time: 72 h
How it was run: as §1

[15] = system: CAL-85-1; conditions: 100 nM; incubation time: 72 h
How it was run: as §1

[16] = system: BT-549; conditions: 10000 nM; incubation time: 72 h
How it was run: as §1

[17] = system: MDA-MB-453; conditions: 1000 nM; incubation time: 72 h
Method: (§2)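 DSRT, CellTiter-Blue viability, 72 h incubation. Signal is normalised to DMSO and benzethonium chloride controls. Value is the normalised response at dose 7.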

[18] = system: CAL-148; conditions: 1000 nM; incubation time: 72 h
Method: as §2

[19] = system: HDQ-P1; conditions: 1000 nM; incubation time: 72 h
Method: as §2

[20] = system: CAL-51; conditions: 1000 nM; incubation time: 72 h
Method: as §2

[21] = system: DU-4475; conditions: 1000 nM; incubation time: 72 h
Method: as §2

[22] = system: CAL-85-1; conditions: 1000 nM; incubation time: 72 h
Method: as §2

[23] = system: MFM-223; conditions: 10 nM; incubation time: 72 h
How it was run: as §1

[24] = system: MDA-MB-453; conditions: 3 nM; incubation time: 72 h
How it was run: as §1

[25] = system: CAL-148; conditions: 3 nM; incubation time: 72 h
How it was run: as §1

[26] = system: HCC1599; conditions: 10 nM; incubation time: 72 h
How it was run: as §1

[27] = system: HCC1143; conditions: 10 nM; incubation time: 72 h
How it was run: as §1

[28] = system: HCC1937; conditions: 10 nM; incubation time: 72 h
How it was run: as §1

[29] = system: MDA-MB-231; conditions: 10 nM; incubation time: 72 h
How it was run: as §1

[30] = system: HDQ-P1; conditions: 3 nM; incubation time: 72 h
How it was run: as §1

[31] = system: SK-BR-3; conditions: 10 nM; incubation time: 72 h
How it was run: as §1

[32] = system: CAL-51; conditions: 3 nM; incubation time: 72 h
How it was run: as §1

[33] = system: DU-4475; conditions: 3 nM; incubation time: 72 h
How it was run: as §1

[34] = system: BT-549; conditions: 10 nM; incubation time: 72 h
How it was run: as §1

Structure (SMILES) | normalised viability [1] [%] | normalised viability [2] [%] | normalised viability [3] [%] | normalised viability [4] [%] | normalised viability [5] [%] | normalised viability [6] [%] | normalised viability [7] [%] | normalised viability [8] [%] | normalised viability [9] [%] | normalised viability [10] [%] | normalised viability [11] [%] | normalised viability [12] [%] | normalised viability [13] [%] | normalised viability [14] [%] | normalised viability [15] [%] | normalised viability [16] [%] | normalised viability [17] [%] | normalised viability [18] [%] | normalised viability [19] [%] | normalised viability [20] [%] | normalised viability [21] [%] | normalised viability [22] [%] | normalised viability [23] [%] | normalised viability [24] [%] | normalised viability [25] [%] | normalised viability [26] [%] | normalised viability [27] [%] | normalised viability [28] [%] | normalised viability [29] [%] | normalised viability [30] [%] | normalised viability [31] [%] | normalised viability [32] [%] | normalised viability [33] [%] | normalised viability [34] [%]
CN(C)C[C@@H]1CCn2cc(c3ccccc32)C2=C(C(=O)NC2=O)c2cn(c3ccccc23)CCO1 [Ruboxistaurin] | 30.1 | 8.88 | 29.2 | 58.1 | 94 | 38.9 | 35.1 | 3.5 | 27.6 | 83.1 | 42.9 | 4 | 88.8 | 95.6 | 115 | 43.7 | 102 | 101 | 67.1 | 76.8 | 73.9 | 122 | 97.6 | 94.7 | 124 | 109 | 135 | 44.5 | 95 | 79.3 | 101 | 98.6 | 113 | 85.2
CN1CCN(CCOc2cc(OC3CCOCC3)c3c(Nc4c(Cl)ccc5c4OCO5)ncnc3c2)CC1 [Saracatinib] | 77.1 | 57.8 | 72.1 | 83.7 | 46.2 | 61.1 | 116 | 42.4 | 60.6 | 111 | 69.7 | 39.7 | 99.1 | 98.9 | 98 | 47.4 | 86.5 | 83.9 | 40.6 | 60.9 | 102 | 51.4 | 104 | 119 | 77.1 | 86.7 | 88 | 107 | 80.7 | 118 | 99.6 | 107 | 96.6 | 94.2
